The source made the active and inactive calls.
Columns and labels:
[1] = Trypanosoma cruzi growth suppression in host cells – NIH3T3 host cells, beta-gal luminescence, confirmation (AID 2044); format: functional, cell-based;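 further: intracellular parasites grown in NIH/3T3 mouse fibroblasts as host cells; luminescent beta-galactosidase reporter signal from transgenic T. cruzi replicating inside host cells; inhibitors lower the luminescence signal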
[2] = NIH3T3 cell viability loss – ATP luminescence, mouse fibroblasts, counter-screen, dose response (AID 2010); format: functional, cell-based;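 further: cells exposed to compound for about 90 hours before reading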
cells [3] = experiment: cells
[4] = HPDE-C7 pancreatic duct cell viability loss – fluorescence, HTS (AID 430); format: functional, cell-based; details: Homo sapiens
[5] = viability loss of HPDE-C7K cells – cell-based, fluorescence, HTS, primary screen (AID 431); format: functional; details: Homo sapiens
[6] = Counterscreen for IDE inhibitors: Luminescence-based cell-based high throughput dose response assay to identify compounds that are cytotoxic to HEK cells. [Related pubchem assays: 434962 (Primary screen (IDE inhibitors in singlicate)), 449730 (Counterscreen (Cytotoxicity in triplicate)), 435028 (Confirmation (IDE inhibitors in triplicate)) …; format: functional; details: HEK293
[7] = viability of PTEN-deleted HCT116 cells – cell-based, HCT116 PTEN knockout, dose response (AID 1047); format: functional;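 further: HCT116 colon tumor cells with PTEN knocked out; cells exposed to compound for 60 hours before readout; potency for loss of cell viability measured by luminescence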
Insulin-degrading enzyme = molecular target: T1, Insulin-degrading enzyme (Homo sapiens, UniProt P14735); experiment: Dose Response: Fluorescence polarization-based cell-based high throughput dose response assay for inhibitors of insulin-degrading enzyme (IDE). [Related pubchem assays: 434962 (Primary screen (IDE inhibitors in singlicate)), 449730 (Counterscreen (Cytotoxicity in triplicate)), 435028 (Confirmation (IDE inhibitors in triplicate)), 434984 (Summary …; format: functional
T1 sequence (P14735 whole entry): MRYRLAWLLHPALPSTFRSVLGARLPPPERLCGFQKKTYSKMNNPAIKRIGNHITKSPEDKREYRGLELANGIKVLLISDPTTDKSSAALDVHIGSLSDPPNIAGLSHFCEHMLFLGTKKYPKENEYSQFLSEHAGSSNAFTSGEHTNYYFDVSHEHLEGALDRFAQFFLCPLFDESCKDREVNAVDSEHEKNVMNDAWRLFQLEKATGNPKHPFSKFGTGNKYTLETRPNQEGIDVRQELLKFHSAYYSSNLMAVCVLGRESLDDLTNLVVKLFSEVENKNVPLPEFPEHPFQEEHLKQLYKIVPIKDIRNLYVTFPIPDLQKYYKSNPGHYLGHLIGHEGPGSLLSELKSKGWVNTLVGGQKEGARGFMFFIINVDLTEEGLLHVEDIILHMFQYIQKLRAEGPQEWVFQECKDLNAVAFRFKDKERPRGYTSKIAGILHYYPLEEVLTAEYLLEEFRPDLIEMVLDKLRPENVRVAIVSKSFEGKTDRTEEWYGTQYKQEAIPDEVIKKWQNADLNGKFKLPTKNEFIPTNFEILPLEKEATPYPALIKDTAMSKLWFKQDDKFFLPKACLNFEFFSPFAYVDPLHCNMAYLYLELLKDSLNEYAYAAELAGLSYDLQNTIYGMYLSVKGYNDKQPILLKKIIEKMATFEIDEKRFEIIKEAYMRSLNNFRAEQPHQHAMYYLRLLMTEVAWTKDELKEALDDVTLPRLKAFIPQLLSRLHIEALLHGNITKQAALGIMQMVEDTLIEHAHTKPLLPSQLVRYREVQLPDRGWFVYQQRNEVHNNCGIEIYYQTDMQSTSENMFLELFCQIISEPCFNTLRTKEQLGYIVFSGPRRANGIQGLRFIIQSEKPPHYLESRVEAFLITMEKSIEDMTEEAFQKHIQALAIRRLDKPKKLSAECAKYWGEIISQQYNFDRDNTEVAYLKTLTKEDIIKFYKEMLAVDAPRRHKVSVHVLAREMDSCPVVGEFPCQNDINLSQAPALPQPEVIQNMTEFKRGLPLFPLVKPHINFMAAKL

[8] = viability of HCT116 lacking mutant beta-catenin – cell-based, human colon tumor, dose response (AID 1045); format: functional;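 further: HCT116 colon tumor cells with beta catenin knocked out; cells exposed to compound for 60 hours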
Cytochrome P450 2D6 = Cytochrome P450 2D6 (Homo sapiens, UniProt P10635); experiment: qHTS Assay for Inhibitors and Substrates of Cytochrome P450 2D6. [Related pubchem assays: 410 ]; format: ADME; details: read-out: Potency
[9] = viability inhibitors of stage V gametocytes – luminescence, dose response (AID 1117278); format: functional, cell-based;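 further: gametocytes exposed to compound for 24 hours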
[10] = viability loss in human Jurkat cells – cell-based, luminescence, cytotoxicity control for P. falciparum gametocyte viability project, dose response (AID 1117277); format: functional;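 further: potency reflects loss of cellular ATP meaning fewer viable cells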
[11] = molecular target: T2, Neuropeptides B/W receptor type 1 (Homo sapiens, UniProt P48145); experiment: Fluorescence-based dose response cell-based high throughput screening assay to identify antagonists of the G-protein coupled receptor 7 (GPR7). [Related pubchem assays: 1952 (Screening assay (GPR7 antagonists).), 1880 (Summary AID.)]; format: functional
T2 sequence (P48145 whole entry): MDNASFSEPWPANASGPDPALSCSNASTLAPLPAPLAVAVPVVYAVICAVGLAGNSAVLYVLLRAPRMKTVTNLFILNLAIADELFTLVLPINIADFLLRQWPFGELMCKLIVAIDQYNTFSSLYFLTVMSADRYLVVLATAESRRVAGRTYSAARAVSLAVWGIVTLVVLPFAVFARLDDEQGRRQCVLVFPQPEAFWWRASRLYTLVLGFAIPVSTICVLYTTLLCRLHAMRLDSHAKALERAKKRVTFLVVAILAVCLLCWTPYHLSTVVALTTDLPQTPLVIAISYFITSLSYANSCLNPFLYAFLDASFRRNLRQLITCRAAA

[12] = molecular target: Melanin-concentrating hormone receptor 1 (Homo sapiens, UniProt Q99705); experiment: Fluorescence-based counterscreen for antagonists of the G-protein coupled receptor 7 (GPR7): cell-based high throughput dose response assay to identify antagonists of the melanin-concentrating hormone receptor 1 (MCHR1).; format: functional
NS3 = NS3 (Hepatitis C virus, UniProt A3EZJ3); experiment: PubChem AID 2173; parameters: species or system Hepacivirus hominis
Major prion protein = Major prion protein (Homo sapiens, UniProt P04156); format: functional, cell-based
cells [13] = experiment: cells; remark: listed apart in the source
[14] = molecular target: Peroxisome proliferator-activated receptor gamma/Nuclear receptor coactivator 2 (Homo sapiens, UniProt P37231); format: functional;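 further: agonist potency for raising coactivator recruitment to the receptor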
[15] = molecular target: Peroxisome proliferator-activated receptor gamma/Nuclear receptor coactivator 1 (Homo sapiens, UniProt P37231); format: functional;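 further: agonist potency as compounds enhance coactivator SRC-1 recruitment to PPARgamma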
[16] = molecular target: Peroxisome proliferator-activated receptor gamma/Nuclear receptor coactivator 3 (Homo sapiens, UniProt P37231); format: functional;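 further: agonist potency for raising coactivator recruitment to the receptor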
Estrogen receptor = molecular target: T3, Estrogen receptor (Homo sapiens, UniProt P03372); experiment: ERα coactivator recruitment enhancers – biochemical, TR-FRET, ERα LBD, dose response (AID 737)
T3 sequence (P03372 whole entry): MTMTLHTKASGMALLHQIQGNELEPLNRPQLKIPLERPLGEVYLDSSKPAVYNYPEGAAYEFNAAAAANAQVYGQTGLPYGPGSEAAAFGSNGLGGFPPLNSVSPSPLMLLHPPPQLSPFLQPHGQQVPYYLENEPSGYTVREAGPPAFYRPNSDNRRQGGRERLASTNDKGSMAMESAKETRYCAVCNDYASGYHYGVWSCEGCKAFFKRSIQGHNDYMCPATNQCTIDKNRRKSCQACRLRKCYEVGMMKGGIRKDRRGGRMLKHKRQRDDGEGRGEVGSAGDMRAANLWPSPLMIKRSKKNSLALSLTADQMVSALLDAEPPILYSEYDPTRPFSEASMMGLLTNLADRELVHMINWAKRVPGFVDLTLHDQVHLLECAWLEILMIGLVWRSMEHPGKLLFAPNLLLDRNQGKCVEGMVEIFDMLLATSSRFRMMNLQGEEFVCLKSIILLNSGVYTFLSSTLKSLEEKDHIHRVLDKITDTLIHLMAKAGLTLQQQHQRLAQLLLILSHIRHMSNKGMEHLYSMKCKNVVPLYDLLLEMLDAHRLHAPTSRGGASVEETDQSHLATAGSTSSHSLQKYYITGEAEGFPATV

## CCCCN(CC)CCNC(=O)c1nn(-c2ccc(OC)cc2)c(=O)c2c1c1ccccc1n2C
[1]
  EC50: < 0.1 µM (active)
[2]
  EC50: > 60 µM (not active)
Cells [3]
  EC50: 0.207 µM (active)

## Cc1ccc(C(=O)OCC(=O)Nc2sc3c(c2C#N)CCCCC3)cc1NC(=O)c1ccco1
[4]
  EC50: > 20 µM (not active)
[5]
  EC50: > 20 µM (not active)

## O=C1NC(=S)N(C(=O)c2ccc(F)cc2)/C1=C/c1ccccc1
[6]
  IC50: 22.4 µM (not active)
[7]
  EC50: 40.8 µM (active)
Insulin-degrading enzyme
  IC50: 22.2 µM (not active)
[8]
  EC50: 54.1 µM (active)

## O[C@@H]1CC[C@H]2Cc3ccccc3N=C21
Cytochrome P450 2D6
  AC50: 20 µM (inconclusive)

## CCN1CCN(C(=O)c2ccc3c(=O)n(C4CCCC4)c(=S)[nH]c3c2)CC1
[9]
  IC50: > 109 µM (inactive)
[10]
  IC50: > 83.3 µM (inactive)

## N=c1c(C(=O)NC2CCCCC2)cc2c(=O)n3ccccc3nc2n1CC1CCCO1 (stereo unspecified)
[11]
  IC50: > 43.8 µM (not active)
[12]
  IC50: > 43.8 µM (not active)

## CCCOc1ccc(C(=O)C2=C(O)C(=O)N(c3ccccn3)C2c2ccccc2F)cc1C (stereo unspecified)
NS3
  IC50: 5.77 µM (active)
Major prion protein
  IC50: 2.96 µM (active)
Cells [13]
  IC50: > 138 µM (inactive)

## COC(=O)c1ccc(COC(=O)c2ccc(S(=O)(=O)N3CCC(C)CC3)cc2)o1
[14]
  EC50: > 79.4 µM (not active)
[15]
  EC50: > 79.4 µM (not active)
[16]
  EC50: > 79.4 µM (not active)
Estrogen receptor
  EC50: 12.6 µM (not active)

Source: ChEMBL document CHEMBL1201862, “PubChem BioAssay data set” (2004)
